Reference: patent US20090035440A1, “Compositions comprising polyphenol” (Conopco, Inc. d/b/a Unilever, priority 2007, published 2009)

How the values were obtained:
[1] = 1H-NMR estimate of non-complexed (free) EGCG in mixed systems with complexing agent; type: binding; conditions: 0.6 wt % EGCG and 0.6 wt % CA in de-ionized water; pH 5.0 (WPI pH 6.5); 1H-NMR at 27° C.
Method: (§1) Stock solutions containing 1.2 wt % EGCG were prepared by adding the powder to de-ionized water (conductivity=18.2 MΩ.cm) and stirring at 40° C. […] Stock solutions of pectin, were prepared by dissolving powder in de-ionized water at 80° C. for 1 hour and then cooling to 25° C. After dissolving the material, the pH of all samples, except for the WPI, was adjusted to 5.0 using 0.01 HCl or 0.1 M NaOH. The WPI was used at a pH of 6.5 to avoid precipitation of the whey proteins. In all cases the maximum ionic strength would remain below 10 mM. After setting the pH, mixed systems were prepared by quickly adding a fixed weight of the stock EGCG-solution into the same weight of complexing agent (CA)-solution under continuous stirring. Thus the final samples contained 0.6 wt % EGCG and 0.6 wt % CA.
Proton-NMR measurements were carried out on 0.6 ml samples in 5 mm NMR tubes at 27° C. using a Bruker AV600 NMR spectrometer. Prior to measurement, 5% (w/w) of D2O was added to each sample. The spectra were acquired with presaturation of the water signal using the Bruker pulse program: noesygppr1d. A signal at ˜4.7 ppm was from residual water and was ignored for data analysis purposes. […] This calibration curve was used to estimate the amount of non-complexed (or “free”) EGCG in the samples.

[2] = Dynamic light scattering particle size of EGCG/complexing agent mixed systems (Example 1); type: physicochemical; conditions: 0.6 wt % EGCG and 0.6 wt % CA; DLS at 25° C., undiluted; volume-averaged; one value per peak where more than one peak
Method: as §1
DLS measurements were performed within 4 hours after sample preparation using a Zetasizer Nano ZS instrument (Malvern Instruments, Malvern, UK). This instrument records intensity fluctuations of scattered light at a fixed angle from clear samples containing particles between 1 and 1000 nm in size. These fluctuations are converted into an autocorrelation function spanning time scales between picoseconds and seconds. The instrument software fits intensity- and volume-weighed size distributions to the recorded autocorrelations. Samples were measured without any dilution at 25° C. […]

[3] = Appearance of EGCG/complexing agent mixed systems (Example 1); type: physicochemical; conditions: 0.6 wt % EGCG and 0.6 wt % CA
Method: as §1

Row | Compound | Amount of EGCG free in solution (wt % of total EGCG) [1] | Average Particle Size (nm) [2] [nm] | Appearance [3]
1 | O=C(O)[C@@H]1CCCN1 [L-proline] | 100 wt % of total EGCG | 2 | Transparent
2 | poly-L-proline | 0 wt % of total EGCG |  | 
